# Assay results as given in patent US9278962B2 (Cytokinetics, Inc., priority 2011, dated 2016).
# System: rabbit skeletal myofibrils (approximately 90% fast fibers)
# Assay: Activation of fast skeletal myofibrils (PUMA coupled-enzyme ATPase assay, AC1.4)
# Type: biochemical
# Conditions: Table 2; concentration at which the compound increased enzymatic activity by 40%; calcium at pCa25
row,Mean AC1.4,Compound
1,A (A=<1 uM),"CC(C)(CNc1nc(-c2cccc(O)c2)ns1)c1ccc(F)cc1 [3-(5-{[2-(4-fluorophenyl)-2-methylpropyl]amino}-1,2,4-thiadiazol-3-yl)phenol]"
2,B (B=1-10 uM),"COc1cncc(-c2nsc(NCC(C)(C)c3ccc(F)cc3)n2)c1 [[2-(4-fluorophenyl)-2-methylpropyl][3-(5-methoxy(3-pyridyl))(1,2,4-thiadiazol-5-yl)]amine]"
3,B (B=1-10 uM),"CC(C)(CNc1nsc(-c2cccc(C(N)=O)c2)n1)c1ccc(F)cc1 [3-(3-{[2-(4-Fluorophenyl)-2-methylpropyl]amino}-1,2,4-thiadiazol-5-yl)benzamide]"
4,D (D=>20 uM),"Fc1ccc(Cc2nsc(NCc3ccc(Cl)c(Cl)c3)n2)cc1 [[(3,4-dichlorophenyl)methyl]{3-[(4-fluorophenyl)methyl])1,2,4-thiadiazol-5-yl)}amine]"
5,A (A=<1 uM),"CC(C)(CNc1nc(Cc2ccc(O)cc2)ns1)c1ccc(Cl)cc1 [4-[(5-{[2-(4-chlorophenyl)-2-methylpropyl]amino}-1,2,4-thiadiazol-3-yl)methyl]phenol]"
6,A (A=<1 uM),"CC(C)(CNc1nc(-c2cccc(C(N)=O)c2)ns1)c1ccc(F)cc1 [3-(5-{[2-(4-fluorophenyl)-2-methylpropyl]amino}-1,2,4-thiadiazol-3-yl)benzamide]"
7,A (A=<1 uM),"CC(C)(CNc1nc(Cc2cccc(O)c2)ns1)c1ccc(F)cc1 [3-[(5-{[2-(4-fluorophenyl)-2-methylpropyl]amino}-1,2,4-thiadiazol-3-yl)methyl]phenol]"
8,D (D=>20 uM),"Cc1ccc(Cc2nsc(NCCc3c(Cl)cccc3Cl)n2)cc1 [[2-(2,6-dichlorophenyl)ethyl]{3-[(4-methylphenyl)methyl](1,2,4-thiadiazol-5-yl)}amine]"
9,D (D=>20 uM),"Fc1ccc(Cc2nsc(NCCc3ccccn3)n2)cc1 [{3-[(4-fluorophenyl)methyl](1,2,4-thiadiazol-5-yl)}(2-(2-pyridyl)ethyl)amine]"
10,D (D=>20 uM),"Fc1ccc(Cc2nsc(Nc3ccc(Cl)cc3)n2)cc1 [(4-chlorophenyl){3-[(4-fluorophenyl)methyl](1,2,4-thiadiazol-5-yl)}amine]"
11,B (B=1-10 uM),"NC(=O)c1cccc(-c2nsc(NCCc3ccc(F)cc3)n2)c1 [3-(5-{[2-(4-fluorophenyl)ethyl]amino}-1,2,4-thiadiazol-3-yl)benzamide]"
12,D (D=>20 uM),"COc1cccc(Cc2nsc(NCCc3ccc(S(N)(=O)=O)cc3)n2)c1 [4-[2-({3-[(3-methoxyphenyl)methyl]-1,2,4-thiadiazol-5-yl}amino)ethyl]benzenesulfonamide]"
13,A (A=<1 uM),"CC(C)(CNc1nc(Cc2cccc(O)c2)ns1)c1ccc(Cl)cc1 [3-[(5-{[2-(4-chlorophenyl)-2-methylpropyl]amino}-1,2,4-thiadiazol-3-yl)methyl]phenol]"
14,B (B=1-10 uM),"COc1cccc(Cc2nsc(NCCc3ccc(F)c(F)c3)n2)c1 [[2-(3,4-difluorophenyl)ethyl]{3-[(3-methoxyphenyl)methyl](1,2,4-thiadiazol-5-yl)}amine]"

# The remaining lines, values behind:
row,Compound,Mean AC1.4
1,"CNCc1nsc(NCC(C)(C)c2ccc(F)cc2)n1 [[(5-{[2-(4-fluorophenyl)-2-methylpropyl]amino}(1,2,4-thiadiazol-3-yl))methyl]methylamine]",D (D=>20 uM)
2,"CC(C)(CNc1nc(CCC(=O)N2CCC(O)CC2)ns1)c1ccc(F)cc1 [3-(5-{[2-(4-fluorophenyl)-2-methylpropyl]amino}(1,2,4-thiadiazol-3-yl))-1-(4-hydroxypiperidyl)propan-1-one]",D (D=>20 uM)
3,"CC(C)(CNc1nc(CCCNC(=O)CN)ns1)c1ccc(F)cc1 [2-amino-N-[3-(5-{[2-(4-fluorophenyl)-2-methylpropyl]amino}(1,2,4-thiadiazol-3-yl))propyl]acetamide]",B (B=1-10 uM)
4,"COc1cccc(Cc2nsc(Nc3ccc(Cl)c(Cl)c3)n2)c1 [(3,4-dichlorophenyl){3-[(3-methoxyphenyl)methyl](1,2,4-thiadiazol-5-yl)}amine]",D (D=>20 uM)
5,"CC(=O)NCc1nsc(NCC(C)(C)c2ccc(F)cc2)n1 [N-[(5-{[2-(4-fluorophenyl)-2-methylpropyl]amino}-1,2,4-thiadiazol-3-yl)methyl]acetamide]",C (C=10-20 uM)
6,"Oc1cccc(Cc2nsc(NCc3ccc(Cl)c(Cl)c3)n2)c1 [3-[(5-{[(3,4-dichlorophenyl)methyl]amino}-1,2,4-thiadiazol-3-yl)methyl]phenol]",D (D=>20 uM)
7,"COc1cccc(Cc2nsc(N(C)CC(C)(C)c3ccc(F)cc3)n2)c1 [[2-(4-fluorophenyl)-2-methylpropyl]{3-[(3-methoxyphenyl)methyl](1,2,4-thiadiazol-5-yl)}methylamine]",D (D=>20 uM)
8,"COC/C=C/c1nsc(NCC(C)(C)c2ccc(F)cc2)n1 [[3-((1E)-3-methoxyprop-1-enyl)(1,2,4-thiadiazol-5-yl)][2-(4-fluorophenyl)-2-methylpropyl]amine]",B (B=1-10 uM)
9,"CC(C)(CNc1nc(CN2CCN(C(=O)CO)CC2)ns1)c1ccc(F)cc1 [1-{4-[(5-{[2-(4-fluorophenyl)-2-methylpropyl]amino}(1,2,4-thiadiazol-3-yl))methyl]piperazinyl}-2-hydroxyethan-1-one]",D (D=>20 uM)
10,"CC(C)(CNc1nc(C(O)CO)ns1)c1ccc(F)cc1 (stereo not shown) [1-(5-{[2-(4-fluorophenyl)-2-methylpropyl]amino}-1,2,4-thiadiazol-3-yl)ethane-1,2-diol]",B (B=1-10 uM)

# Same assay, conditions: Table 3; concentration at which the compound increased enzymatic activity by 40%; calcium at pCa25
row,Mean AC1.4,Compound
1,B (B=1-10 uM),"NC(=O)c1cccc(-c2nnc(NC[C@]3(c4ncccc4F)C[C@H](F)C3)s2)c1 [3-(5-(((trans)-3-fluoro-1-(3-fluoropyridin-2-yl)cyclobutyl)methylamino)-1,3,4-thiadiazol-2-yl)benzamide]"
2,B (B=1-10 uM),"COC(=O)c1ccc(F)c(-c2nnc(NC[C@]3(c4ncccc4F)C[C@H](F)C3)s2)c1 [methyl 4-fluoro-3-(5-((3-fluoro-1-(3-fluoropyridin-2-yl)cyclobutyl)methylamino)-1,3,4-thiadiazol-2-yl)benzoate]"
3,B (B=1-10 uM),"Cc1cc(Br)sc1-c1nnc(NC[C@]2(c3ncccc3F)C[C@H](F)C2)s1 [5-(5-bromo-3-methylthiophen-2-yl)-N-((3-fluoro-1-(3-fluoropyridin-2-yl)cyclobutyl)methyl)-1,3,4-thiadiazol-2-amine]"
4,B (B=1-10 uM),"Fc1cccnc1C1(CNc2nnc(-c3nccs3)s2)CCC1 [N-((1-(3-fluoropyridin-2-yl)cyclobutyl)methyl)-5-(thiazol-2-yl)-1,3,4-thiadiazol-2-amine]"
5,D (D=>20 uM),"NC(=O)c1ccccc1-c1nnc(NCC2(c3ncccc3F)CCC2)s1 [2-(5-((1-(3-fluoropyridin-2-yl)cyclobutyl)methylamino)-1,3,4-thiadiazol-2-yl)benzamide]"
6,B (B=1-10 uM),"N#Cc1cccc(-c2nnc(NCC3(c4ncccc4F)CCC3)s2)c1 [3-(5-((1-(3-fluoropyridin-2-yl)cyclobutyl)methylamino)-1,3,4-thiadiazol-2-yl)benzonitrile]"
7,D (D=>20 uM),"N#Cc1ccc(-c2nnc(NC[C@]3(c4ncccc4F)C[C@H](F)C3)s2)s1 [5-(5-((3-fluoro-1-(3-fluoropyridin-2-yl)cyclobutyl)methylamino)-1,3,4-thiadiazol-2-yl)thiophene-2-carbonitrile]"
8,D (D=>20 uM),"NC(=O)c1ccc(-c2nnc(NCC3(c4ncccc4F)CCC3)s2)cc1 [4-(5-((1-(3-fluoropyridin-2-yl)cyclobutyl)methylamino)-1,3,4-thiadiazol-2-yl)benzamide]"

# Same assay, conditions: Table 4; concentration at which the compound increased enzymatic activity by 40%; calcium at pCa25
row,Mean AC1.4,Compound
1,B (B=1-10 uM),COc1cccc(C2(CNc3nc4ccc(C(N)=O)cc4s3)CCC2)n1 [2-((1-(6-methoxypyridin-2-yl)cyclobutyl)methylamino)benzo[d] thiazole-6-carboxamide]
2,B (B=1-10 uM),"CN(C)C(=O)c1ccc2nc(NCC(C)(C)c3ccc(F)cc3)sc2c1 [2-(2-(4-fluorophenyl)-2-methylpropylamino)-N,N-dimethylbenzo[d]thiazole-6-carboxamide]"
3,D (D=>20 uM),N#Cc1ccc2nc(NCCc3ccc(F)cc3)sc2c1 [2-(4-fluorophenethylamino)benzo[d] thiazole-6-carbonitrile]
4,C (C=10-20 uM),Fc1cccnc1C1(CNc2nc3ccccc3s2)CCC1 [N-((1-(3-fluoropyridin-2-yl)cyclobutyl)methyl)benzo[d] thiazol-2-amine]
5,A (A=<1 uM),NC(=O)c1cc(Cl)c2nc(NCC3(c4ncccc4F)CCC3)sc2c1 [4-chloro-2-((1-(3-fluoropyridin-2-yl)cyclobutyl)methylamino)benzo[d] thiazole-6-carboxamide]
6,D (D=>20 uM),N#Cc1ccc2nc(N)sc2c1 [2-aminobenzo[d]thiazole-6-carbonitrile]
7,A (A=<1 uM),CC(C)(CNc1nc2c(C#N)cccc2s1)c1ccc(F)cc1 [2-(2-(4-fluorophenyl)-2-methylpropylamino)benzo[d] thiazole-4-carbonitrile]

# Same assay, conditions: Table 5; concentration at which the compound increased enzymatic activity by 40%; calcium at pCa25
row,Mean AC1.4,Compound
1,D (D=>20 uM),"NC(=O)c1ccc(F)c(-c2nnc(NC3(c4ncccc4F)CCC3)[nH]2)c1 [4-fluoro-3-(5-(1-(3-fluoropyridin-2-yl)cyclobutylamino)-4H-1,2,4-triazol-3-yl)benzamide]"
2,A (A=<1 uM),Cc1nc(NCC2(c3ncccc3F)CCC2)sc1-c1ccccc1 [N-((1-(3-fluoropyridin-2-yl)cyclobutyl)methyl)-4-methyl-5-phenylthiazol-2-amine]
3,B (B=1-10 uM),"CC(C)(Nc1nnc(-c2cc(Br)ccc2F)o1)c1ccc(F)cc1 [5-(5-bromo-2-fluorophenyl)-N-(2-(4-fluorophenyl)propan-2-yl)-1,3,4-oxadiazol-2-amine]"
4,D (D=>20 uM),Cc1cc(NC(=O)C2(c3ncccc3F)CCC2)nn1-c1ccccc1 [1-(3-fluoropyridin-2-yl)-N-(5-methyl-1-phenyl-1H-pyrazol-3-yl)cyclobutanecarboxamide]
